Reference: patent US5385894A, “Disubstituted 6-aminoquinazolinones” (Merck & Co., Inc., priority 1994, dated 1995)

Experiment: log P (Table 1)
Assay type: physicochemical

logP | log P | SMILES
> 5.7 | – | CCCCCN(C(=O)c1ccc(OCc2ccccc2)cc1)c1ccc2nc(CCC)n(Cc3ccc(-c4ccccc4-c4nnn[nH]4)cc3)c(=O)c2c1 [Example 128]
3.8 | – | CCCOC(=O)N(Cc1ccncc1)c1ccc2nc(CCC)n(Cc3ccc(-c4ccccc4-c4nn[nH]n4)cc3)c(=O)c2c1 [Example 156]
2.1 | – | CCCc1nc2ccc(N(CC(=O)O)C(=O)c3ccccc3)cc2c(=O)n1Cc1ccc(-c2ccccc2-c2nnn[nH]2)cc1 [Example 120]
4.6 | – | CCc1nc2ccc(N(Cc3ccccc3I)C(=O)c3ccccc3)cc2c(=O)n1Cc1ccc(-c2ccccc2-c2nn[nH]n2)cc1 [Example 117]
5.3 | – | CCCc1nc2ccc(N(Cc3ccccc3)C(=O)CN3CCN(C(=O)OC(C)(C)C)CC3)cc2c(=O)n1Cc1ccc(-c2ccccc2-c2nnn[nH]2)cc1 [Example 133]
2.9 | – | CCCc1nc2ccc(N(C)C(C)=O)cc2c(=O)n1Cc1ccc(-c2ccccc2S(=O)(=O)NC(=O)C2CC2)cc1 [Example 108]
– | 3.5 | Cc1nc2ccc(N(Cc3ccccc3)C(=O)c3ccccc3)cc2c(=O)n1Cc1ccc(-c2ccccc2-c2nnn[nH]2)cc1 [Example 69]
5.1 | – | CCCCCN(C(=O)c1cccs1)c1ccc2nc(CCC)n(Cc3ccc(-c4ccccc4-c4nnn[nH]4)cc3)c(=O)c2c1 [Example 113]
3.8 | – | CCCc1nc2ccc(N(Cc3ccccc3)C(=O)c3ccccn3)cc2c(=O)n1Cc1ccc(-c2ccccc2-c2nn[nH]n2)cc1 [Example 136]
3.9 | – | CCCOC(=O)N(Cc1ccc(N)cc1)c1ccc2nc(CCC)n(Cc3ccc(-c4ccccc4-c4nn[nH]n4)cc3)c(=O)c2c1 [Example 166]
4.4 | – | CCCCCN(C(=O)c1ccc(S(C)(=O)=O)cc1)c1ccc2nc(CCC)n(Cc3ccc(-c4ccccc4-c4nn[nH]n4)cc3)c(=O)c2c1 [Example 83]
5.2 | – | CCCCCN(C(=O)c1ccc(F)cc1)c1ccc2nc(CCC)n(Cc3ccc(-c4ccccc4-c4nn[nH]n4)cc3)c(=O)c2c1 [Example 43]
4.1 | – | CCCc1nc2ccc(N(CCCC(=O)OCC)C(=O)c3ccccc3)cc2c(=O)n1Cc1ccc(-c2ccccc2-c2nnn[nH]2)cc1 [Example 103]
5.1 | – | CCCc1nc2ccc(N(CCC)C(=O)OCC(C)C)cc2c(=O)n1Cc1ccc(-c2ccccc2-c2nnn[nH]2)cc1 [Example 10]
5 | – | CCCOC(=O)N(Cc1ccccc1)c1ccc2nc(CCC)n(Cc3ccc(-c4ccccc4-c4nnn[nH]4)cc3)c(=O)c2c1 [Example 17]
6 | – | CCCCOC(=O)N(CCCC)c1ccc2nc(CCC)n(Cc3ccc(-c4ccccc4-c4nn[nH]n4)cc3)c(=O)c2c1 [Example 24]
4.9 | – | CCC(C)c1nc2ccc(N(Cc3ccccc3)C(=O)c3ccccc3)cc2c(=O)n1Cc1ccc(-c2ccccc2-c2nn[nH]n2)cc1 (stereo not drawn) [Example 100]
3.6 | – | CCCc1nc2ccc(N(Cc3ccccc3)C(=O)Cn3ccnc3)cc2c(=O)n1Cc1ccc(-c2ccccc2-c2nn[nH]n2)cc1 [Example 132]
4.1 | – | CCCc1nc2ccc(N(CCC)C(=O)c3ccccc3OC)cc2c(=O)n1Cc1ccc(-c2ccccc2-c2nnn[nH]2)cc1 [Example 127]
2.4 | – | CCCc1nc2ccc(N(Cc3ccc(C(=O)O)cc3)C(=O)c3ccccc3)cc2c(=O)n1Cc1ccc(-c2ccccc2-c2nn[nH]n2)cc1 [Example 182]
4.3 | – | CCCCCN(C(=O)c1cccnc1)c1ccc2nc(CCC)n(Cc3ccc(-c4ccccc4-c4nn[nH]n4)cc3)c(=O)c2c1 [Example 72]

logP | log P | SMILES
3.8 | – | CCCc1nc2ccc(N(CC)C(=O)c3cccs3)cc2c(=O)n1Cc1ccc(-c2ccccc2-c2nnn[nH]2)cc1 [Example 124]
4.3 | – | CCCc1nc2ccc(N(CCC)C(=O)c3ccc(F)cc3)cc2c(=O)n1Cc1ccc(-c2ccccc2-c2nn[nH]n2)cc1 [Example 90]
4.7 | – | CCCc1nc2ccc(N(Cc3ccccc3)C(=O)OCC)cc2c(=O)n1Cc1ccc(-c2ccccc2-c2nn[nH]n2)cc1 [Example 56]
4.3 | – | CCCCCN(C(=O)c1ccc([S+](C)[O-])cc1)c1ccc2nc(CCC)n(Cc3ccc(-c4ccccc4-c4nn[nH]n4)cc3)c(=O)c2c1 (stereo not drawn) [Example 81]
3.5 | – | CCCc1nc2ccc(N(Cc3ccccn3)C(=O)OCC)cc2c(=O)n1Cc1ccc(-c2ccccc2-c2nn[nH]n2)cc1 [Example 164]
3.8 | – | CCCOC(=O)N(Cc1cccnc1)c1ccc2nc(CCC)n(Cc3ccc(-c4ccccc4-c4nn[nH]n4)cc3)c(=O)c2c1 [Example 158]
3.3 | – | CCCOC(=O)N(Cc1ccccn1)c1ccc2nc(COC)n(Cc3ccc(-c4ccccc4-c4nn[nH]n4)cc3)c(=O)c2c1 [Example 162]
5 | – | CCc1nc2ccc(N(Cc3ccc(I)cc3)C(=O)c3ccccc3)cc2c(=O)n1Cc1ccc(-c2ccccc2-c2nnn[nH]2)cc1 [Example 112]
– | 4.1 | CCc1nc2ccc(N(Cc3ccccc3)C(=O)c3cccs3)cc2c(=O)n1Cc1ccc(-c2ccccc2-c2nn[nH]n2)cc1 [Example 118]
4.7 | – | CCCCCN(C(=O)c1ccc(O)cc1)c1ccc2nc(CCC)n(Cc3ccc(-c4ccccc4-c4nnn[nH]4)cc3)c(=O)c2c1 [Example 130]
> 6 | – | CCCCCN(C(=O)c1ccc(Cl)cc1)c1ccc2nc(CCC)n(Cc3ccc(-c4ccccc4-c4nn[nH]n4)cc3)c(=O)c2c1 [Example 37]
5.4 | – | CCCCC(=O)N(Cc1ccccc1)c1ccc2nc(CCC)n(Cc3ccc(-c4ccccc4-c4nn[nH]n4)cc3)c(=O)c2c1 [Example 42]
3.7 | – | CCCc1nc2ccc(N(Cc3ccccc3)C(=O)c3cccnc3)cc2c(=O)n1Cc1ccc(-c2ccccc2-c2nnn[nH]2)cc1 [Example 134]
3.3 | – | O=C(c1ccccc1)N(Cc1ccccc1)c1ccc2ncn(Cc3ccc(-c4ccccc4-c4nn[nH]n4)cc3)c(=O)c2c1 [Example 95]
5.5 | – | CCCCCN(C(=O)c1ccccc1)c1ccc2nc(CCC)n(Cc3ccc(-c4ccccc4S(=O)(=O)NC(=O)c4ccccc4)cc3)c(=O)c2c1 [Example 74]
4.1 | – | CCCCN(C(=O)c1ccncc1)c1ccc2nc(CCC)n(Cc3ccc(-c4ccccc4-c4nn[nH]n4)cc3)c(=O)c2c1 [Example 68]
4.3 | – | CCCCCN(C(=O)c1ccncc1)c1ccc2nc(CCC)n(Cc3ccc(-c4ccccc4-c4nnn[nH]4)cc3)c(=O)c2c1 [Example 35]
– | 4.5 | CC(C)c1nc2ccc(N(Cc3ccccc3)C(=O)c3ccccc3)cc2c(=O)n1Cc1ccc(-c2ccccc2-c2nnn[nH]2)cc1 [Example 70]
4.4 | – | CCc1nc2ccc(N(Cc3ccccc3Cl)C(=O)c3ccccc3)cc2c(=O)n1Cc1ccc(-c2ccccc2-c2nn[nH]n2)cc1 [Example 84]
5.7 | – | CCCCCN(C(=O)c1ccccc1)c1ccc2nc(CCC)n(Cc3ccc(-c4ccccc4NS(=O)(=O)C(F)(F)F)cc3)c(=O)c2c1 [Example 104]
– | 4.2 | CCc1nc2ccc(N(CC=C(C)C)C(=O)c3ccccc3)cc2c(=O)n1Cc1ccc(-c2ccccc2-c2nn[nH]n2)cc1 [Example 85]

logP | log P | SMILES
3.2 | – | CCCc1nc2ccc(N(Cc3ccccn3)C(=O)c3ccco3)cc2c(=O)n1Cc1ccc(-c2ccccc2-c2nn[nH]n2)cc1 [Example 148]
4.8 | – | CC(C)c1nc2ccc(N(Cc3ccccc3Cl)C(=O)C3CC3)cc2c(=O)n1Cc1ccc(-c2ccccc2-c2nn[nH]n2)cc1 [Example 94]
4.5 | – | CCCc1nc2ccc(N(Cc3ccccc3)C(=O)c3ccccc3)cc2c(=O)n1Cc1ccc(-c2ccccc2-c2nn[nH]n2)cc1 [Example 36]
3.5 | – | CCCc1nc2ccc(N(CC)C(=O)c3ccco3)cc2c(=O)n1Cc1ccc(-c2ccccc2-c2nnn[nH]2)cc1 [Example 125]
3.4 | – | CCCc1nc2ccc(N(Cc3ccncc3)C(=O)c3ccccc3)cc2c(=O)n1Cc1ccc(-c2ccccc2-c2nn[nH]n2)cc1 [Example 138]
3.7 | – | COCc1nc2ccc(N(C)C(=O)OCC(C)C)cc2c(=O)n1Cc1ccc(-c2ccccc2-c2nn[nH]n2)cc1 [Example 161]
4.5 | – | CCCc1nc2ccc(N(CC(C)C)C(=O)c3ccccc3)cc2c(=O)n1Cc1ccc(-c2ccccc2-c2nnn[nH]2)cc1 [Example 102]
– | 3.7 | CCCc1nc2ccc(N(Cc3ccccc3)C(=O)c3ccccn3)cc2c(=O)n1Cc1ccc(-c2ccccc2-c2nn[nH]n2)cc1 [Example 140]
4 | – | CCCc1nc2ccc(N(Cc3ccccc3)C(=O)c3ccc(O)cc3)cc2c(=O)n1Cc1ccc(-c2ccccc2-c2nn[nH]n2)cc1 [Example 147]
3.9 | – | CCc1nc2ccc(N(Cc3ccccc3)C(=O)c3ccco3)cc2c(=O)n1Cc1ccc(-c2ccccc2-c2nnn[nH]2)cc1 [Example 122]
3.8 | – | CCCc1nc2ccc(N(CCC)C(=O)c3ccc(O)cc3)cc2c(=O)n1Cc1ccc(-c2ccccc2-c2nnn[nH]2)cc1 [Example 131]
3.9 | – | CCCOC(=O)N(Cc1ccccn1)c1ccc2nc(CCC)n(Cc3ccc(-c4ccccc4-c4nn[nH]n4)cc3)c(=O)c2c1 [Example 159]
4.3 | – | CCCc1nc2ccc(N(Cc3ccccc3)C(=O)N(C)CC)cc2c(=O)n1Cc1ccc(-c2ccccc2-c2nn[nH]n2)cc1 [Example 30]
4.2 | – | CCCCN(C(=O)c1ccc(O)cc1)c1ccc2nc(CCC)n(Cc3ccc(-c4ccccc4-c4nn[nH]n4)cc3)c(=O)c2c1 [Example 144]
3.7 | – | CCCc1nc2ccc(N(Cc3ccccn3)C(=O)N(C)C(C)C)cc2c(=O)n1Cc1ccc(-c2ccccc2-c2nn[nH]n2)cc1 [Example 175]
5 | – | CCCc1nc2ccc(N(Cc3ccccc3)C(=O)c3ccccc3OC)cc2c(=O)n1Cc1ccc(-c2ccccc2-c2nn[nH]n2)cc1 [Example 126]
3.6 | – | CCCc1nc2ccc(N(Cc3ccc(O)cc3)C(=O)c3ccccc3)cc2c(=O)n1Cc1ccc(-c2ccccc2-c2nn[nH]n2)cc1 [Example 179]
4.8 | – | CCCc1nc2ccc(N(Cc3ccc(F)cc3)C(=O)N(C)C(C)C)cc2c(=O)n1Cc1ccc(-c2ccccc2-c2nn[nH]n2)cc1 [Example 174]
2.8 | – | CCCc1nc2ccc(N(Cc3cccnc3)C(=O)c3ccc(O)cc3)cc2c(=O)n1Cc1ccc(-c2ccccc2-c2nn[nH]n2)cc1 [Example 181]

SMILES | logP | log P
CCCCCN(C(=O)c1ccc(OP(=O)(O)O)cc1)c1ccc2nc(CCC)n(Cc3ccc(-c4ccccc4-c4nn[nH]n4)cc3)c(=O)c2c1 [Example 146] | 3.4 | –
CCCc1nc2ccc(N(Cc3ccccn3)C(=O)Oc3ccccc3)cc2c(=O)n1Cc1ccc(-c2ccccc2-c2nn[nH]n2)cc1 [Example 135] | 3.6 | –
